# From ChEMBL document CHEMBL5584237, “Design, synthesis, biological evaluation, and in silico studies of novel pyridopyridine derivatives as anticancer candidates targeting FMS kinase” (Eur J Med Chem, 2024)
# Activity calls are given as the source filed them. No cut-off for these calls is given here.
# Experiments:
# OVCAR-4 = assay: Antiproliferative activity against human OVCAR-4 cells assessed as cell growth inhibition; type: functional
# [1] = Selectivity index, ratio of IC50 for human HS27 cells to IC50 for human COLO 205 cells
# [2] = Selectivity index, ratio of IC50 for human WI-38 cells to IC50 for human SW-620 cells
# Hep 3B2 [3] = assay: Induction of apoptosis in human Hep3B cells assessed as increase in cleaved PARP expression measured after 48 hrs by Western blot analysis; type: functional, cell-based
# [4] = Selectivity index, ratio of IC50 for human WI-38 cells to IC50 for human Malme-3M cells
# [5] = Selectivity index, ratio of IC50 for human WI-38 cells to IC50 for human MOLT-4 cells
# 786-0 = assay: Antiproliferative activity against human 786-0 cells assessed as cell growth inhibition; type: functional
# [6] = Selectivity index, ratio of IC50 for human WI-38 cells to IC50 for human NCI-H460 cells; type: toxicity; settings: WI-38 cells and NCI-H460 cells, read-out: Ratio IC50
# Hep 3B2 [7] = assay: Cell cycle arrest in human Hep3B cells assessed as upregulation of cyclin B1 expression at 3.38 uM measured after 48 hrs by Western blot analysis; type: functional, cell-based
smiles,measurement,setting,value
CCN1CCN(c2ccc(NC(=O)Nc3ccc(-c4cc(C(=O)NC(C)C)c5ncccc5n4)cc3)cc2C(F)(F)F)CC1,GI50,OVCAR-4,880 nM
same,TGI,OVCAR-4,2450 nM
same,Ratio IC50,[1],9.77
same,Ratio IC50,[2],18.84
same,Activity,Hep 3B2 [3],Dose-Dependent Effect
same,Ratio IC50,[4],8.62
same,Ratio IC50,[5],15.43
same,GI50,786-0,500 nM
same,TGI,786-0,1030 nM
same,selectivity ratio,[6],6.4
same,Activity,Hep 3B2 [7],Active
